{"source": "patent US10160753B2", "about": "“Indazole compounds as IRAK4 inhibitors” (Aurigene Discovery Technologies Limited, priority 2014, dated 2018)", "note": "Structures can show the parent of a compound that is named as a salt.", "data": [{"molecular_target": "T1, recombinant IRAK-4 kinase (Homo sapiens, UniProt Q9NWZ3)", "T1 construct": "purchased Millipore, USA", "T1 sequence (Q9NWZ3 1-460)": "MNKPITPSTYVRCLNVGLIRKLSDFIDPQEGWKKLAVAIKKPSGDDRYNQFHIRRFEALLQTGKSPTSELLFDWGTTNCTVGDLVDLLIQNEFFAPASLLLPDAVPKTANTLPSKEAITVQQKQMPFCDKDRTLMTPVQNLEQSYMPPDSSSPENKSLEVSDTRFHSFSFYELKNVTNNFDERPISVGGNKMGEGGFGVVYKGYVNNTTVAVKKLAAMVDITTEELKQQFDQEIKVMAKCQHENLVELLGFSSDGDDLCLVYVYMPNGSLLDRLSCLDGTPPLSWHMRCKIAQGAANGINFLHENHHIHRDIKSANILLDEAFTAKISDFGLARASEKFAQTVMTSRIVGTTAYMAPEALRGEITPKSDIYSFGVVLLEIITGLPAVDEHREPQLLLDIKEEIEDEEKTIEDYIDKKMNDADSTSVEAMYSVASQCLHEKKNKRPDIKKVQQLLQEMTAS", "experiment": "IRAK-4 Biochemical Assay (TR-FRET)", "conditions": "30 min pre-incubation, 100 nM Biotin Histone H3, 20 μM ATP, read-out: IC50 values for IRAK4 activity", "method": "Compounds were tested for their potential to inhibit IRAK-4 enzyme in a TR-FRET assay using recombinant IRAK-4 kinase from Millipore, USA. The assay buffer was 50 mM Tris-HCl pH 7.5, 20 mM MgCl2, 1 mM EGTA, 2 mM DTT, 3 mM MnCl2 and 0.01% Tween 20.5 ng of IRAK-4 kinase was used for the assay. After pre-incubation of enzyme with test compound for 30 minutes at room temperature, a substrate mixture containing 100 nM Biotin Histone H3 (Millipore, USA) and 20 μM ATP (Sigma, USA) was added and the reaction was incubated for 30 min. Post incubation, the reaction was stopped by the addition of stop mix containing 40 mM EDTA, 1 nM of Europium-Anti-Phospho-Histone H3 (Ser10) antibody (Perkin Elmer, USA) and 20 nM SureLight Allophycocyanin-Streptavidin (Perkin Elmer, USA). The fluorescence emission at 615 nm and 665 nm were measured at an excitation of 340 nm and the percent inhibition was estimated from the ratio of the fluorescence intensities [(F665/F615)×10000]. The compounds were initially screened at 1 μM and 10 μM concentrations and potent compounds (>50% inhibition at 1 μM) were taken for dose response studies. The IC50 values were estimated by fitting the dose-response data to sigmoidal dose response (variable slope), curve fitting program using Graphpad Prism software Version 6.01.", "units": {"IC50": "nM"}, "values": [{"smiles": "Cn1cc2cc(NC(=O)c3cccc(-c4cn[nH]c4)n3)c(N3CCCCC3)cc2n1", "note": "[Example 1, N-(2-methyl-6-(piperidin-1-yl)-2H-indazol-5-yl)-6-(1H-pyrazol-4-yl) picolinamide]", "IC50": "< 50"}, {"smiles": "Cc1cc(-c2nc(C(=O)Nc3cc4cn(C)nc4cc3N3CCCCC3)co2)ccn1", "note": "[Example 2, N-(2-methyl-6-(piperidin-1-yl)-2H-indazol-5-yl)-2-(2-methylpyridin-4-yl) oxazole-4-carboxamide]", "IC50": "< 50"}, {"smiles": "Cc1cc(-c2nc(C(=O)Nc3cc4cnn(C)c4cc3N3CCCCC3)co2)ccn1", "note": "[Example 3, N-(1-methyl-6-(piperidin-1-yl)-1H-indazol-5-yl)-2-(2-methylpyridin-4-yl) oxazole-4-carboxamide]", "IC50": "< 50"}, {"smiles": "Cc1cc(-c2nc(C(=O)Nc3cc4cn(C5CCCC5)nc4cc3N3CCCCC3)co2)ccn1", "note": "[Example 4, N-(2-cyclopentyl-6-(piperidin-1-yl)-2H-indazol-5-yl)-2-(2-methylpyridin-4-yl) oxazole-4-carboxamide]", "IC50": "< 50"}, {"smiles": "Cc1cc(-c2nc(C(=O)Nc3cc4cn(C5CCCC5)nc4cc3C#N)co2)ccn1", "note": "[Example 5, N-(6-cyano-2-cyclopentyl-2H-indazol-5-yl)-2-(2-methylpyridin-4-yl) oxazole-4-carboxamide]", "IC50": "< 50"}, {"smiles": "Cc1cc(-c2nc(C(=O)Nc3cc4cn(C5CCCC5)nc4cc3C3CC3)co2)ccn1", "note": "[Example 6, N-(2-cyclopentyl-6-cyclopropyl-2H-indazol-5-yl)-2-(2-methylpyridin-4-yl) oxazole-4-carboxamide]", "IC50": "< 50"}, {"smiles": "O=C(Nc1cc2cn(C3CCCC3)nc2cc1C1CC1)c1cccc(-c2cn[nH]c2)n1", "note": "[Example 7, N-(2-cyclopentyl-6-cyclopropyl-2H-indazol-5-yl)-6-(1H-pyrazol-4-yl) picolinamide]", "IC50": "< 50"}, {"smiles": "Cc1cc(-c2nc(C(=O)Nc3cc4cn(C5CCCC5)nc4cc3N3CCOCC3)co2)ccn1", "note": "[Example 8, N-(2-cyclopentyl-6-morpholino-2H-indazol-5-yl)-2-(2-methylpyridin-4-yl) oxazole-4-carboxamide]", "IC50": "< 50"}, {"smiles": "Nc1ccc(-c2cccc(C(=O)Nc3cc4cn(C5CCCC5)nc4cc3N3CCOCC3)n2)cn1", "note": "[Example 9, 6′-amino-N-(2-cyclopentyl-6-morpholino-2H-indazol-5-yl)-[2,3′-bipyridine]-6-carboxamide 2,2,2-trifluoroacetate]", "IC50": "< 50"}, {"smiles": "Cc1cc(-c2nc(C(=O)Nc3cc4cn(C)nc4cc3-c3cccc(F)c3)co2)ccn1", "note": "[Example 10, N-(6-(3-fluorophenyl)-2-methyl-2H-indazol-5-yl)-2-(2-methylpyridin-4-yl)oxazole-4-carboxamide]", "IC50": "< 50"}, {"smiles": "Cc1cc(-c2nc(C(=O)Nc3cc4cn(C)nc4cc3C3CCCCC3)co2)ccn1", "note": "[Example 11, N-(6-cyclohexyl-2-methyl-2H-indazol-5-yl)-2-(2-methylpyridin-4-yl)oxazole-4-carboxamide hydrochloride]", "IC50": "< 50"}, {"smiles": "Cn1cc2cc(NC(=O)c3cccc(-c4ccc(F)nc4)n3)c(N3CCCCC3)cc2n1", "note": "[Example 12, 6′-fluoro-N-(2-methyl-6-(piperidin-1-yl)-2H-indazol-5-yl)-[2,3′-bipyridine]-6-carboxamide hydrochloride]", "IC50": "< 50"}, {"smiles": "Cn1cc2cc(NC(=O)c3cccc(-c4cn[nH]c4)n3)c(C3CCCCC3)cc2n1", "note": "[Example 13, N-(6-cyclohexyl-2-methyl-2H-indazol-5-yl)-6-(1H-pyrazol-4-yl)picolinamide hydrochloride]", "IC50": "< 50"}, {"smiles": "Cn1cc2cc(NC(=O)c3cccc(-c4cccnc4F)n3)c(N3CCCCC3)cc2n1", "note": "[Example 14, 2′-fluoro-N-(2-methyl-6-(piperidin-1-yl)-2H-indazol-5-yl)-[2,3′-bipyridine]-6-carboxamide]", "IC50": "< 50"}, {"smiles": "Cn1cc2cc(NC(=O)c3coc(-c4ccnc(Cl)c4)n3)c(N3CCCCC3)cc2n1", "note": "[Example 15, 2-(2-chloropyridin-4-yl)-N-(2-methyl-6-(piperidin-1-yl)-2H-indazol-5-yl)oxazole-4-carboxamide hydrochloride]", "IC50": "< 50"}, {"smiles": "Cc1cc(-c2nc(C(=O)Nc3cc4cn(C)nc4cc3C3CC3)co2)ccn1", "note": "[Example 16, N-(6-cyclopropyl-2-methyl-2H-indazol-5-yl)-2-(2-methylpyridin-4-yl)oxazole-4-carboxamide hydrochloride]", "IC50": "< 50"}, {"smiles": "Cn1cc(-c2cccc(C(=O)Nc3cc4cnn(C5CCCC5)c4cc3C3CC3)n2)cn1", "note": "[Example 17, N-(1-cyclopentyl-6-cyclopropyl-1H-indazol-5-yl)-6-(1-methyl-1H-pyrazol-4-yl)picolinamide]", "IC50": "> 100"}, {"smiles": "Cn1cc(-c2cccc(C(=O)Nc3cc4cn(C5CCCC5)nc4cc3C3CC3)n2)cn1", "note": "[Example 18, N-(2-cyclopentyl-6-cyclopropyl-2H-indazol-5-yl)-6-(1-methyl-1H-pyrazol-4-yl)picolinamide]", "IC50": "< 50"}, {"smiles": "Cn1cc(-c2cccc(C(=O)Nc3cc4cn(C)nc4cc3N3CCCCC3)n2)cn1", "note": "[Example 19, 6-(1-methyl-1H-pyrazol-4-yl)-N-(2-methyl-6-(piperidin-1-yl)-2H-indazol-5-yl)picolinamide]", "IC50": "< 50"}, {"smiles": "COc1ccc(-c2nc(C(=O)Nc3cc4cn(C5CCCC5)nc4cc3C3CC3)co2)cn1", "note": "[Example 20, N-(2-cyclopentyl-6-cyclopropyl-2H-indazol-5-yl)-2-(6-methoxypyridin-3-yl)oxazole-4-carboxamide]", "IC50": "< 50"}, {"smiles": "COc1ccc(-c2nc(C(=O)Nc3cc4cn(C)nc4cc3N3CCCCC3)co2)cn1", "note": "[Example 21, 2-(6-methoxypyridin-3-yl)-N-(2-methyl-6-(piperidin-1-yl)-2H-indazol-5-yl)oxazole-4-carboxamide]", "IC50": "< 50"}, {"smiles": "Cc1cnccc1-c1nc(C(=O)Nc2cc3cn(C)nc3cc2N2CCCCC2)co1", "note": "[Example 22, N-(2-methyl-6-(piperidin-1-yl)-2H-indazol-5-yl)-2-(3-methylpyridin-4-yl)oxazole-4-carboxamide]", "IC50": "< 50"}, {"smiles": "Cn1cc2cc(NC(=O)c3cccc(Br)n3)c(N3CCCCC3)cc2n1", "note": "[Example 23, 6-bromo-N-(2-methyl-6-(piperidin-1-yl)-2H-indazol-5-yl)picolinamide]", "IC50": "< 50"}, {"smiles": "Cc1ccc(C(=O)Nc2cc3cn(C)nc3cc2N2CCCCC2)nc1Cl", "note": "[Example 24, 6-chloro-5-methyl-N-(2-methyl-6-(piperidin-1-yl)-2H-indazol-5-yl)picolinamide]", "IC50": "< 50"}, {"smiles": "Cc1ccc(-c2nc(C(=O)Nc3cc4cn(C)nc4cc3N3CCCCC3)co2)cn1", "note": "[Example 25, N-(2-methyl-6-(piperidin-1-yl)-2H-indazol-5-yl)-2-(6-methylpyridin-3-yl)oxazole-4-carboxamide]", "IC50": "< 50"}, {"smiles": "Cc1ncccc1-c1nc(C(=O)Nc2cc3cn(C4CCCC4)nc3cc2C2CC2)co1", "note": "[Example 26, N-(2-cyclopentyl-6-cyclopropyl-2H-indazol-5-yl)-2-(2-methylpyridin-3-yl)oxazole-4-carboxamide]", "IC50": "< 50"}, {"smiles": "Cc1cnccc1-c1nc(C(=O)Nc2cc3cn(C4CCCC4)nc3cc2C2CC2)co1", "note": "[Example 27, N-(2-cyclopentyl-6-cyclopropyl-2H-indazol-5-yl)-2-(3-methylpyridin-4-yl)oxazole-4-carboxamide]", "IC50": "< 50"}, {"smiles": "Cc1ccc(-c2nc(C(=O)Nc3cc4cn(C5CCCC5)nc4cc3C3CC3)co2)cn1", "note": "[Example 28, N-(2-cyclopentyl-6-cyclopropyl-2H-indazol-5-yl)-2-(6-methylpyridin-3-yl)oxazole-4-carboxamide]", "IC50": "< 50"}, {"smiles": "Cc1ccc(C(=O)Nc2cc3cn(C)nc3cc2N2CCCCC2)nc1-c1ccc(N)nc1", "note": "[Example 29, 6′-amino-3-methyl-N-(2-methyl-6-(piperidin-1-yl)-2H-indazol-5-yl)-[2,3′-bipyridine]-6-carboxamide hydrochloride]", "IC50": "< 50"}, {"smiles": "Cc1ccc(C(=O)Nc2cc3cn(C)nc3cc2N2CCCCC2)nc1-c1cnn(C)c1", "note": "[Example 30, 5-methyl-6-(1-methyl-1H-pyrazol-4-yl)-N-(2-methyl-6-(piperidin-1-yl)-2H-indazol-5-yl)picolinamide]", "IC50": "< 50"}, {"smiles": "Cc1cc(-c2nc(C(=O)Nc3cc4cnn(C5CC5)c4cc3N3CCCCC3)co2)ccn1", "note": "[Example 31, N-(1-cyclopropyl-6-(piperidin-1-yl)-1H-indazol-5-yl)-2-(2-methylpyridin-4-yl)oxazole-4-carboxamide hydrochloride]", "IC50": "< 50"}, {"smiles": "Cn1cc2cc(NC(=O)c3coc(-c4cccnc4O)n3)c(N3CCCCC3)cc2n1", "note": "[Example 32, 2-(2-hydroxypyridin-3-yl)-N-(2-methyl-6-(piperidin-1-yl)-2H-indazol-5-yl)oxazole-4-carboxamide]", "IC50": "< 50"}]}]}
